Reference: patent US10758534B2 (Vertex Pharmaceuticals Incorporated, priority 2014, dated 2020)

Molecular target: T1, F508del (Homo sapiens, UniProt P13569, DEL508-508)
T1 construct: expressed in transfected cells
Experiment: Protocol 2: FRET membrane potential optical assay (VIPR), identification of correction compounds
Type: cell-based
Conditions: F508del CFTR modulator activity; compounds of Table 1
In short: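 FRET read-out (CC2-DMPE donor, DiSBAC2(3) voltage-sensitive acceptor) of membrane depolarization on VIPR II. Corrector candidates incubated 16 hrs at 37° C. with NIH3T3 cells expressing F508del; temperature correction at 27° C. as positive control; stimulation by 10 μM forskolin, 20 μM genistein, chloride-free gluconate bath.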

T1 sequence (P13569 with tags, fused parts or gaps DEL508-508): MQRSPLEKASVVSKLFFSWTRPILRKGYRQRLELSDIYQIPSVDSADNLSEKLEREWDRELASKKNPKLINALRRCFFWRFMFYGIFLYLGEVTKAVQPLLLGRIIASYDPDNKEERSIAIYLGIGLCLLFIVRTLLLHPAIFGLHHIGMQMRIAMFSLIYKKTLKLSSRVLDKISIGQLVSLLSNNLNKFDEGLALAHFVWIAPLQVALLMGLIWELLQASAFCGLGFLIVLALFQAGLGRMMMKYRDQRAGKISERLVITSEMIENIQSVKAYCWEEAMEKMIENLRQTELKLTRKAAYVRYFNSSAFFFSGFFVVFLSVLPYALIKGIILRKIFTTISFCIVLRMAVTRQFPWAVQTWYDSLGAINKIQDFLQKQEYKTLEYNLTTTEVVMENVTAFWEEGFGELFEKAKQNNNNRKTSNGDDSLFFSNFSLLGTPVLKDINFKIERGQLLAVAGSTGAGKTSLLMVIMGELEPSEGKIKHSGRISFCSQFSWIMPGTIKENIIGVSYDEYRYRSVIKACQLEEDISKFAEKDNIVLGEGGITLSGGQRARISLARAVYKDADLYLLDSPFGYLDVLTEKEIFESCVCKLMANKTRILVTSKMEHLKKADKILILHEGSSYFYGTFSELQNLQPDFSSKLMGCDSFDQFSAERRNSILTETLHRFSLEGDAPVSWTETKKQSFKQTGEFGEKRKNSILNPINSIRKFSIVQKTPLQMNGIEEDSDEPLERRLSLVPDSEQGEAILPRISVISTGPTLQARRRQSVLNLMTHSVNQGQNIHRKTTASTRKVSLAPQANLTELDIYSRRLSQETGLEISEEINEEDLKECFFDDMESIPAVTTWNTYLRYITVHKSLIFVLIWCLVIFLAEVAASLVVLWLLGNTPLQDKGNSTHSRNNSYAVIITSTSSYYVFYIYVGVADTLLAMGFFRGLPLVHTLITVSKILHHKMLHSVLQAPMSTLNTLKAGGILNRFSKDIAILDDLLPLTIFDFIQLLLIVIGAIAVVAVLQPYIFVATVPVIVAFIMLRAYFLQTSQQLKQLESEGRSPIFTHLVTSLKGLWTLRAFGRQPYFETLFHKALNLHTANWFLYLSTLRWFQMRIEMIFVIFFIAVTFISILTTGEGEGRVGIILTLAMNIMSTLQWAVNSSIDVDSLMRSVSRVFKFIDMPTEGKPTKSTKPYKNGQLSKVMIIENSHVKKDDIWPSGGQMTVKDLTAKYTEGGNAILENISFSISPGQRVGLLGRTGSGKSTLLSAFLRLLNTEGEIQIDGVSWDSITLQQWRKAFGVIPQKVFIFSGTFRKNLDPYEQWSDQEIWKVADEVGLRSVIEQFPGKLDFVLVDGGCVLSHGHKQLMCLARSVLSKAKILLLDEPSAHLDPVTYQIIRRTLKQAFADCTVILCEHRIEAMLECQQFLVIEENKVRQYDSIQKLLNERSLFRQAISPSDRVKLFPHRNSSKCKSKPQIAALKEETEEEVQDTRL

SMILES	EC30
CC[C@@H](C)Oc1ccn(-c2ccc(C(=O)NS(=O)(=O)c3cccnc3N)c(N3C[C@@H](C)CC3(C)C)n2)n1 [Compound 2705]	+++ (“+++” means <3 uM)

Same assay, conditions: F508del CFTR modulator activity; compounds of Table 1; read-out: EC30

SMILES	EC30
CC1CN(c2ncccc2C(=O)NS(=O)(=O)c2cccc(OCC3CC=CCC3C)n2)C(C)(C)C1 (stereo not shown) [Compound 2001, N—[[6-[(6-methylcyclohex-3-en-1-yl)methoxy]-2-pyridyl]sulfonyl]-2-(2,2,4-trimethylpyrrolidin-1-yl)pyridine-3-carboxamide]	< 3000 nM
CC(C)COc1cc(F)cc(-c2ccc(C(=O)NS(=O)(=O)c3cccc(N)n3)c(N3CC4CC(C3)C4C)n2)c1 (stereo not shown) [Compound 2224, N-[(6-amino-2-pyridyl)sulfonyl]-6-(3-fluoro-5-isobutoxy-phenyl)-2-(6-methyl-3-azabicyclo[3.1.1]heptan-3-yl)pyridine-3-carboxamide]	< 3000 nM
CC1CN(c2ncccc2C(=O)NS(=O)(=O)c2cccc(NCc3cccc(C(F)(F)F)n3)n2)C(C)(C)C1 (stereo not shown) [Compound 2365, N—[[6-[[6-(trifluoromethyl)-2-pyridyl]methylamino]-2-pyridyl]sulfonyl]-2-(2,2,4-trimethylpyrrolidin-1-yl)pyridine-3-carboxamide]	< 3000 nM
CCCOc1ccc(C)cc1-c1ccc(C(=O)NS(=O)(=O)c2cccc(N)n2)c(N2C[C@@H](C)CC2(C)C)n1 [Compound 2085, N-[(6-amino-2-pyridyl)sulfonyl]-6-(5-methyl-2-propoxy-phenyl)-2-[(4S)-2,2,4-trimethylpyrrolidin-1-yl]pyridine-3-carboxamide]	< 3000 nM
CC1CN(c2ncccc2C(=O)NS(=O)(=O)c2cccc(OC3(C)CCCCCC3)n2)C(C)(C)C1 (stereo not shown) [Compound 2057, N—[[6-(1-methylcycloheptoxy)-2-pyridyl]sulfonyl]-2-(2,2,4-trimethylpyrrolidin-1-yl)pyridine-3-carboxamide]	< 3000 nM
CC1CN(c2ncccc2C(=O)NS(=O)(=O)c2cccc(NCC3CCCC3)n2)C(C)(C)C1 (stereo not shown) [Compound 2026, N—[[6-(cyclopentylmethylamino)-2-pyridyl]sulfonyl]-2-(2,2,4-trimethylpyrrolidin-1-yl)pyridine-3-carboxamide]	< 3000 nM
CC1CN(c2ncccc2C(=O)NS(=O)(=O)c2cccc(OCCc3ccccc3F)n2)C(C)(C)C1 (stereo not shown) [Compound 2625, N—[[6-[2-(2-fluorophenyl)ethoxy]-2-pyridyl]sulfonyl]-2-(2,2,4-trimethylpyrrolidin-1-yl)pyridine-3-carboxamide]	< 3000 nM
Cc1cc(OC2CCCC2)cc(-c2cnc(N3CC(C)CC3(C)C)c(C(=O)NS(=O)(=O)c3cccc(N)n3)c2)c1 (stereo not shown) [Compound 2313, N-[(6-amino-2-pyridyl)sulfonyl]-5-[3-(cyclopentoxy)-5-methyl-phenyl]-2-(2,2,4-trimethylpyrrolidin-1-yl)pyridine-3-carboxamide]	< 3000 nM
Cc1ccc(-c2ccc(C(=O)NS(=O)(=O)c3cccnc3N)c(N3C[C@@H](C)CC3(C)C)n2)c(F)c1 [Compound 2613, N-[(2-amino-3-pyridyl)sulfonyl]-6-(2-fluoro-4-methyl-phenyl)-2-[(4S)-2,2,4-trimethylpyrrolidin-1-yl]pyridine-3-carboxamide]	< 3000 nM
CCCCN(C)c1cccc(S(=O)(=O)NC(=O)c2cccnc2N2CC(C)CC2(C)C)n1 (stereo not shown) [Compound 2307, N—[[6-[butyl(methyl)amino]-2-pyridyl]sulfonyl]-2-(2,2,4-trimethylpyrrolidin-1-yl)pyridine-3-carboxamide]	< 3000 nM
Cc1ccc(-c2ccc(C(=O)NS(=O)(=O)c3cccc(N)n3)c(N3C[C@@H](C)CC3(C)C)n2)c(O)c1 [Compound 2043, N-[(6-amino-2-pyridyl)sulfonyl]-6-(2-hydroxy-4-methyl-phenyl)-2-[(4S)-2,2,4-trimethylpyrrolidin-1-yl]pyridine-3-carboxamide]	< 3000 nM
CC(C)COc1cc(F)cc(-c2nc(N3C[C@@H](C)CC3(C)C)c(C(=O)NS(=O)(=O)c3cccc(N)n3)cc2I)c1 [Compound 2009, N-[(6-amino-2-pyridyl)sulfonyl]-6-(3-fluoro-5-isobutoxy-phenyl)-5-iodo-2-[(4S)-2,2,4-trimethylpyrrolidin-1-yl]pyridine-3-carboxamide]	< 3000 nM
CCOc1ccccc1-c1cnc(N2CC(C)CC2(C)C)c(C(=O)NS(=O)(=O)c2cccc(N)n2)c1 (stereo not shown) [Compound 2557, N-[(6-amino-2-pyridyl)sulfonyl]-5-(2-ethoxyphenyl)-2-(2,2,4-trimethylpyrrolidin-1-yl)pyridine-3-carboxamide]	< 3000 nM
CC1CN(c2ncc(-c3ccc(N(C)C)cc3)cc2C(=O)NS(=O)(=O)c2cccc(N)n2)C(C)(C)C1 (stereo not shown) [Compound 2288, N-[(6-amino-2-pyridyl)sulfonyl]-5-(4-dimethylaminophenyl)-2-(2,2,4-trimethylpyrrolidin-1-yl)pyridine-3-carboxamide]	< 3000 nM
CC1CN(c2ncccc2C(=O)NS(=O)(=O)c2cccc(OCCC3CCNCC3)n2)C(C)(C)C1 (stereo not shown) [Compound 2452, N—[[6-[2-(4-piperidyl)ethoxy]-2-pyridyl]sulfonyl]-2-(2,2,4-trimethylpyrrolidin-1-yl)pyridine-3-carboxamide]	< 3000 nM
CC1CN(c2ncccc2C(=O)NS(=O)(=O)c2cccc(Oc3cccc(Cl)c3)n2)C(C)(C)C1 (stereo not shown) [Compound 2461, N—[[6-(3-chlorophenoxy)-2-pyridyl]sulfonyl]-2-(2,2,4-trimethylpyrrolidin-1-yl)pyridine-3-carboxamide]	< 3000 nM
CC1CN(c2ncccc2C(=O)NS(=O)(=O)c2cccc(Nc3ccc(C(F)(F)F)nc3)n2)C(C)(C)C1 (stereo not shown) [Compound 2466, N—[[6-[[6-(trifluoromethyl)-3-pyridyl]amino]-2-pyridyl]sulfonyl]-2-(2,2,4-trimethylpyrrolidin-1-yl)pyridine-3-carboxamide]	< 3000 nM
CC1CN(c2ncccc2C(=O)NS(=O)(=O)c2cccc(OCc3ccccc3C(F)(F)F)n2)C(C)(C)C1 (stereo not shown) [Compound 2261, N—[[6-[[2-(trifluoromethyl)phenyl]methoxy]-2-pyridyl]sulfonyl]-2-(2,2,4-trimethylpyrrolidin-1-yl)pyridine-3-carboxamide]	< 3000 nM

Same assay, conditions: Table 3; compounds of Table 1 as modulators of CFTR activity; protocol not stated

SMILES	EC30
Cc1cccc(C)c1Cn1nc(C(C)(C)C)cc1C(=O)NS(=O)(=O)c1cccc2c1ccn2C [Compound 210, 5-tert-butyl-2-[(2,6-dimethylphenyl)methyl]-N-(1-methylindol-4-yl)sulfonyl-pyrazole-3-carboxamide]	+++ (“+++” means <3 uM)
Cc1cc(C)c(C)c(Cn2nc(C(C)(C)C)cc2C(=O)NS(=O)(=O)c2cccc(N)c2)c1C [Compound 317, N-(3-aminophenyl)sulfonyl-5-tert-butyl-2-[(2,3,5,6-tetramethylphenyl)methyl]pyrazole-3-carboxamide]	+++ (“+++” means <3 uM)
Cc1c(Cn2nc(C(C)(C)C)cc2C(=O)NS(=O)(=O)c2cccc3ccn(C)c23)cccc1C(F)(F)F [Compound 276, 5-tert-butyl-N-(1-methylindol-7-yl)sulfonyl-2-[[2-methyl-3-(trifluoromethyl)phenyl]methyl]pyrazole-3-carboxamide]	+++ (“+++” means <3 uM)
CC(C)Oc1cc(-c2ccc(C(=O)NS(=O)(=O)c3cccc(N)n3)c(N3[C@H](C)CC[C@@H]3C)n2)ccc1Cl [Compound 788, N-[(6-amino-2-pyridyl)sulfonyl]-6-(4-chloro-3-isopropoxy-phenyl)-2-[(2S,5R)-2,5-dimethylpyrrolidin-1-yl]pyridine-3-carboxamide]	+++ (“+++” means <3 uM)
CCC(c1ccccc1)n1nc(C(C)(C)C)cc1C(=O)NS(=O)(=O)c1cccc(N)c1 (stereo not shown) [Compound 165, N-(3-aminophenyl)sulfonyl-5-tert-butyl-2-(1-phenylpropyl)pyrazole-3-carboxamide]	+++ (“+++” means <3 uM)
Cc1ccccc1C(C)n1nc(C(C)(C)C)cc1C(=O)NS(=O)(=O)c1cccc(N)c1 (stereo not shown) [Compound 342, N-(3-aminophenyl)sulfonyl-5-tert-butyl-2-[1-(o-tolyl)ethyl]pyrazole-3-carboxamide]	+++ (“+++” means <3 uM)
Cc1cc(C)c(Cn2nc(-c3cccc(C)c3F)cc2C(=O)NS(=O)(=O)c2cccc(N)c2)c(C)c1 [Compound 293, N-(3-aminophenyl)sulfonyl-5-(2-fluoro-3-methyl-phenyl)-2-[(2,4,6-trimethylphenyl)methyl]pyrazole-3-carboxamide]	+++ (“+++” means <3 uM)
Cc1cc(C)c(Oc2nc(NC(C)C)ccc2C(=O)NS(=O)(=O)c2cccc(N)n2)c(C)c1 [Compound 650, N-[(6-amino-2-pyridyl)sulfonyl]-6-(isopropylamino)-2-(2,4,6-trimethylphenoxy)pyridine-3-carboxamide]	++ (“++” means between 3 uM and 10 uM)
COc1c(C)cccc1-c1cc(C(=O)NS(=O)(=O)c2cccc(N)c2)n(Cc2c(C)cc(C)cc2C)n1 [Compound 208, N-(3-aminophenyl)sulfonyl-5-(2-methoxy-3-methyl-phenyl)-2-[(2,4,6-trimethylphenyl)methyl]pyrazole-3-carboxamide]	+++ (“+++” means <3 uM)
CC(C)(C)c1ccc(C(=O)NS(=O)(=O)c2cccc(N)n2)c(-c2ccccc2)n1 [Compound 334, N-[(6-amino-2-pyridyl)sulfonyl]-6-tert-butyl-2-phenyl-pyridine-3-carboxamide]	++ (“++” means between 3 uM and 10 uM)
CC1CCN(c2nc3c(cc2C(=O)NS(=O)(=O)c2nccnc2N)CCCC3(C)C)CC1 [Compound 197, N-(3-aminopyrazin-2-yl)sulfonyl-8,8-dimethyl-2-(4-methyl-1-piperidyl)-6,7-dihydro-5H-quinoline-3-carboxamide]	+++ (“+++” means <3 uM)
CC1CN(c2nc(-c3cncc(OCC(C)(C)C)n3)ccc2C(=O)NS(=O)(=O)c2cccc(N)n2)C(C)(C)C1 (stereo not shown) [Compound 779, N-[(6-amino-2-pyridyl)sulfonyl]-6-[6-(2,2-dimethylpropoxy)pyrazin-2-yl]-2-(2,2,4-trimethylpyrrolidin-1-yl)pyridine-3-carboxamide]	+++ (“+++” means <3 uM)
